Experimental data as given in article PMC6348444, “New Water-Soluble Copper(II) Complexes with Morpholine–Thiosemicarbazone Hybrids: Insights into the Anticancer and Antibacterial Mode of Action” (Journal of Medicinal Chemistry, 2018).

Experiments:
A2780 cells = assay: MTT cytotoxicity assay, A2780; format: cell-based, human; conditions: 72 h exposure
A2780cisR cells = assay: MTT cytotoxicity assay, A2780cisR; format: cell-based, human; conditions: for RF (resistance factor): IC50(A2780cisR)/IC50(A2780); for IC50: MTT assay, 72 h exposure, cisplatin-resistant A2780cisR, read-out: IC50 A2780cis
HEK293 cells = assay: MTT cytotoxicity assay, HEK293; format: cell-based, human; conditions: for SF (selectivity factor): IC50(HEK293)/IC50(A2780); for IC50: MTT assay, 72 h exposure, noncancerous cells
mouse R2 RNR protein = biological target: T1, mouse R2 RNR protein (Mus musculus, UniProt P11157); assay: Tyrosyl radical reduction in R2 RNR protein by EPR; format: biochemical; conditions: 1:1 protein-to-compound ratio, 298 K, presence of DTT, within 90 s
T1 construct: made in house; host or cells: Escherichia coli
T1 sequence (P11157 1-390): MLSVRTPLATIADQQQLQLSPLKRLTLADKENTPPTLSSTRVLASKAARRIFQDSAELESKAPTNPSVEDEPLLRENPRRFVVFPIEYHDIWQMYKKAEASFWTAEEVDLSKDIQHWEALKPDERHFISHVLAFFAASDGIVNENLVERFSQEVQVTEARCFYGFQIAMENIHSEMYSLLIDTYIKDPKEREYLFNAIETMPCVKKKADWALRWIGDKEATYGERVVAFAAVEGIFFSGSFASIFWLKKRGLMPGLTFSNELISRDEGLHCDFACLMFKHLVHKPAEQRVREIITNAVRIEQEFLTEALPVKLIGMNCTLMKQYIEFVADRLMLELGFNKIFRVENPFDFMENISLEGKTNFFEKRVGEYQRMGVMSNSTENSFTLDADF
Experimental: The effects of the most cytotoxic complexes 2 and 5, and the corresponding proligands HL^2 and HL^5, on the mouse R2 tyrosyl radical were investigated by EPR spectroscopy at 30 K. The proligands and their Cu(II) complexes were incubated with the mouse R2 RNR protein at 1:1 protein-to-compound mole ratio at 298 K in the presence or absence of the reducing agent dithiothreitol (DTT), and the time-dependent reduction of the tyrosyl radical was monitored.[39] Tyrosyl radical reduction by the investigated compounds was observed only in the presence of DTT. Upon incubation with HL^2, HL^5, and 2, 5, 50% of tyrosyl radical was reduced within 90 s, after which no further reduction was observed (Figure S15). […] HL^2 and HL^5 (λmax = 312 and 320 nm, respectively) readily reacted with FeSO4·7H2O affording Fe(II) bis-ligand complexes (λmax = 373, 610 nm and λmax = 385, 645 nm, respectively) at both 1:1 and 1:2 Fe-to-ligand mole ratios. […]
The 9.4 GHz EPR spectra were recorded at 30 K on a Bruker EleXsys II E540 EPR spectrometer with an Oxford Instruments ESR900 helium cryostat, essentially as described previously.[51] […]

Solubility in water = format: physicochemical; conditions: sterile water stock solutions
Experimental: Human ovarian carcinoma cells A2780 and A2780cisR and human embryonic kidney HEK293 were obtained from ATCC. A2780 and A2780cisR cells were cultured in RPMI 1640 medium containing 10% FBS. HEK293 were cultured in DMEM medium containing 10% FBS. All cells were grown in tissue culture 25 cm^2 flasks (BD Biosciences, Singapore) at 37 °C in a humidified atmosphere of 95% air and 5% CO2. All drug stock solutions were prepared in sterile water. The amount of Cu was determined by ICP–OES.

[1] = Cyclic voltammetry, redox potentials; format: physicochemical; conditions: first reduction step
Experimental: To assess the redox properties of 1-6, detailed electrochemical and spectroscopic studies in various solvents were performed using cyclic voltammetry as well as EPR-spectroelectrochemistry. Additionally, the UV-vis spectra of 1-5 were measured (Figure S8). […] The second reduction step occurred at -1.8 V versus Fc^+/Fc (-1.16 V vs NHE) and was less reversible, indicating a ligand-based reduction. […] In aqueous solutions, the reduction potentials shifted to the less negative values, and reduction was less reversible as shown for 2 in Figure S10. […] Cyclic voltammetric experiments were performed as described previously.[46] The cyclic voltammograms were measured in the cathodic region in different solvents (DMSO, methanol, DMSO/H2O). The analytical purity grade LiClO4 (Sigma-Aldrich) and distilled and deionized water were used for preparation of 1 mM aqueous solutions of the investigated complexes 1-6. EPR spectra were recorded with the EMX plus. In situ UV-vis-NIR spectroelectrochemical measurements were performed on a spectrometer (Avantes, Model AvaSpec-2048x14-USB2 in the spectroelectrochemical cell kit ([…]3)) with the Pt-microstructured honeycomb working electrode, purchased from Pine Research Instrumentation. The cell was positioned in the CUV-UV Cuvette Holder (Ocean Optics) connected to the diode-array UV-vis-NIR spectrometer by optical fibers. UV-vis-NIR spectra were processed using the AvaSoft 7.7 software package. Halogen and deuterium lamps were used as light sources (Avantes, Model AvaLight-DH-S-BAL). The in situ EPR spectroelectrochemical experiments were carried out under an argon atmosphere in the EPR flat cell equipped with a large platinum mesh working electrode. The freshly prepared solutions were carefully purged with argon and the electrolytic cell was polarized in the galvanostatic mode directly in the cylindrical EPR cavity TM-110 (ER 4103 TM), and the EPR spectra were measured in situ.

Compound | IC50 (A2780 cells) [nM] | RF (resistance factor) (A2780cisR cells) | IC50 (A2780cisR cells) [nM] | SF (selectivity factor) (HEK293 cells) | IC50 (HEK293 cells) [nM] | tyrosyl radical reduced (mouse R2 RNR protein) [%] | solubility in water (Solubility in water) [mM] | E1/2 Red1 (DMSO) vs Fc+/Fc ([1]; vs Fc+/Fc) | E1/2 Red1 (DMSO) vs NHE ([1]; vs NHE (in brackets)) | E1/2 Red1 (H2O) vs Fc+/Fc ([1]; H2O, vs Fc+/Fc) | E1/2 Red1 (H2O) vs NHE ([1]; H2O, vs NHE (in brackets)) | E1/2 Red1 (MeOH) vs Fc+/Fc ([1]; vs Fc+/Fc) | E1/2 Red1 (MeOH) vs NHE ([1]; vs NHE (in brackets))
CN(C)C(=NN=Cc1ccc(CN2CCOCC2)cn1)[S][Cu][Cl] [complex 2, [Cu(L^2)Cl]] | 12 ± 2 | 2.5 | 30 ± 3 | 2.7 | 32 ± 8 | 50 | ≤ 2 | –0.80 V | –0.16 V | –0.52 V | +0.12 V | –0.54 V | +0.10 V
[Cl][Cu][S]C(=NN=Cc1ccc(CN2CCOCC2)cn1)Nc1ccccc1 [complex 5, [Cu(L^5)Cl]] | 9 ± 2 | 1.9 | 17 ± 2 | 2.2 | 20 ± 3 | 50 | ≤ 2 | –0.77 V | –0.13 V | – | – | –0.48 V | +0.16 V
